From patent publication US9139587B2, “N1-pyrazolospiroketone acetyl-CoA carboxylase inhibitors” (Pfizer Inc., priority 2009, dated 2015)

Legend:
[1] = target: T1, recombinant human ACC2 (rhACC2) (Homo sapiens, UniProt O00763, V2141I); experiment: recombinant hACC2 Transcreener assay (direct inhibition of ACC2 activity); type: biochemical; details: Transcreener ADP detection FP assay, 50 μM ATP, 30 μM acetyl-CoA, 50 min at 25° C.
T1 construct: a full length Cytomax clone of ACC2 was purchased from Cambridge Bioscience Limited; made in house; host or cells: CHO cells (tetracycline-induced, pcDNA5 FRT TO-TOPO)
T1 sequence (O00763 whole entry V2141I): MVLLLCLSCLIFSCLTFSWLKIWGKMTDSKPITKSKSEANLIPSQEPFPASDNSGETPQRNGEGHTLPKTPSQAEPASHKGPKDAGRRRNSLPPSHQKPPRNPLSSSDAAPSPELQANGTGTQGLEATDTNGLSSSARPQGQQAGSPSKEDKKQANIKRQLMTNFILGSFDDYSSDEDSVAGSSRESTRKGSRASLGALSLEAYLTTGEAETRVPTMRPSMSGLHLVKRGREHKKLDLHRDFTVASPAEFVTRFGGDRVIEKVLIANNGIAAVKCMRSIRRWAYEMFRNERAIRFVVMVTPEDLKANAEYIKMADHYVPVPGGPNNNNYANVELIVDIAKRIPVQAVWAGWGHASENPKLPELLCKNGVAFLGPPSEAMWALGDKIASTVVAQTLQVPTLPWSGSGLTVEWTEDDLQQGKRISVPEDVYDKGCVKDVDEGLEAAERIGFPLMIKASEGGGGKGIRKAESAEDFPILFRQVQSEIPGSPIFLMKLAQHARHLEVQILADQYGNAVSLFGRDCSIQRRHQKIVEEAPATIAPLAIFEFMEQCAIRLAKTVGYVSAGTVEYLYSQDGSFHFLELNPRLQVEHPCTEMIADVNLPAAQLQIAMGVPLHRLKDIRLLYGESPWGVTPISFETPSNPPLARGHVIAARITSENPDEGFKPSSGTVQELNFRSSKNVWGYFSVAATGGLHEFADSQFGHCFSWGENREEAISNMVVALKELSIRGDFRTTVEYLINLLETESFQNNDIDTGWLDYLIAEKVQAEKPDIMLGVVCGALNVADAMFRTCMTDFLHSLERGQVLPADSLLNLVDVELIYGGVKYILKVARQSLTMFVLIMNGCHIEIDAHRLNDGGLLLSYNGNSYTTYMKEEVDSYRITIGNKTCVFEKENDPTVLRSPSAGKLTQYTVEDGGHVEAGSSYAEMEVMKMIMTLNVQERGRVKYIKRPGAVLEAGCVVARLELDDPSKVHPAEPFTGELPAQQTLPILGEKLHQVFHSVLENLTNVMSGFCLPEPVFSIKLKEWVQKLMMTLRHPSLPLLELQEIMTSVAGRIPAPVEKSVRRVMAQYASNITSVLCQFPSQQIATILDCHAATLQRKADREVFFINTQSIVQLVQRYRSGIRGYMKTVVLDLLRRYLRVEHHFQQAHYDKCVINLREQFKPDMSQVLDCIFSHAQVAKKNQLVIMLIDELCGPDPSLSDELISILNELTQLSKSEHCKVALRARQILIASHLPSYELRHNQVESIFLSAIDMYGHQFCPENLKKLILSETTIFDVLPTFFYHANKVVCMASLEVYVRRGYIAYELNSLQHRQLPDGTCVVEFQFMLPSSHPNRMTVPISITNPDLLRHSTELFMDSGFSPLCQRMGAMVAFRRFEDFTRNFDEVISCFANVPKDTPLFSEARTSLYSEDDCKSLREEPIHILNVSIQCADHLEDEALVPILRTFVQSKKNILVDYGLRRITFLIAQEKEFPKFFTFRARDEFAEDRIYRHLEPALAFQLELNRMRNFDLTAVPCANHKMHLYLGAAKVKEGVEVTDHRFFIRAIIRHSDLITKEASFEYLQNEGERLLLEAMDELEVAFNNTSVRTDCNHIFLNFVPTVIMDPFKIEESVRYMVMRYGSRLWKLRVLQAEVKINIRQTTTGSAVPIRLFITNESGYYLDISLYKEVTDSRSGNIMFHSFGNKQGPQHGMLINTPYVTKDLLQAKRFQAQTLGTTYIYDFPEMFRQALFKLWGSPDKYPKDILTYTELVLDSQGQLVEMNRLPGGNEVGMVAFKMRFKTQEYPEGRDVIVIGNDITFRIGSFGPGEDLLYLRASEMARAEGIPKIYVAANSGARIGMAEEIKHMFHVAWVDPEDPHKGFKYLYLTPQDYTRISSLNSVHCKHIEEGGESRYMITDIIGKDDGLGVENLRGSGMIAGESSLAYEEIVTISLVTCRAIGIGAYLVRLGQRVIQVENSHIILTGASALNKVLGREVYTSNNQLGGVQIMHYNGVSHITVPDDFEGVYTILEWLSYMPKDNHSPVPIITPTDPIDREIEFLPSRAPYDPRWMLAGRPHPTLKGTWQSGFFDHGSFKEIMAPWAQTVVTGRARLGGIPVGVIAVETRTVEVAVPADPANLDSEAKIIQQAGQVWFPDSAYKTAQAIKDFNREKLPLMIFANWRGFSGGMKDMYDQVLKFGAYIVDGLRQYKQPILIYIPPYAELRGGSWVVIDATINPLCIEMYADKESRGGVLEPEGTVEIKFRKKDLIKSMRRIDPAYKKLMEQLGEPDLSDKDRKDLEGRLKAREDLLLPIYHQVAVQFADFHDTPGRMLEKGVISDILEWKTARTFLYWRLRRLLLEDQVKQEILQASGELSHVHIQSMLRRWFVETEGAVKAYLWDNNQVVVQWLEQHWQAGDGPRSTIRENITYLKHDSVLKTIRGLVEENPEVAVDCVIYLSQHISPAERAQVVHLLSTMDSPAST
Method: For example direct inhibition of ACC activity, for the compound of Formula (1) was determined using preparations of recombinant human ACC1 (rhACC1) and recombinant human ACC2 (rhACC2). Representative sequences of the recombinant human ACC1 and ACC2 that can be used in the assay are provided in FIG. 1 (SEQ ID NO. 1) and FIG. 2 (SEQ. ID NO. 2), respectively.
[3] Preparation of rhACC2. Human ACC2 inhibition was measured using purified recombinant human ACC2 (hrACC2). Briefly, a full length Cytomax clone of ACC2 was purchased from Cambridge Bioscience Limited and was sequenced and subcloned into PcDNA5 FRT TO-TOPO (Invitrogen, Carlsbad, Calif.). The ACC2 was expressed in CHO cells by tetracycline induction and harvested in 5 liters of DMEM/F12 with glutamine, biotin, hygromycin and blasticidin with 1 μg/mL tetracycline (Invitrogen, Carlsbad, Calif.). The conditioned medium containing ACC2 was then applied to a Softlink Soft Release Avidin column (Promega, Madison, Wis.) and eluted with 5 mM biotin. 4 mgs of ACC2 were eluted at a concentration of 0.05 mg/mL (determined by A280) with an estimated purity of 95% ([…]). The purified ACC2 was dialyzed in 50 mM Tris, 200 mM NaCl, 4 mM DTT, 2 mM EDTA, and 5% glycerol. The pooled protein was frozen and stored at −80° C., with no loss of activity upon thawing. For measurement of ACC2 activity and assessment of ACC2 inhibition, test compounds were dissolved in DMSO and added to the rhACC2 enzyme as a 5× stock with a final DMSO concentration of 1%.
[4] Measurement of human ACC2 inhibition. hACC2 was assayed in a Costar #3676 (Costar, Cambridge, Mass.) 384-well plate using the Transcreener ADP detection FP assay kit (Bellbrook Labs, Madison, Wisconsin) using the manufacturer's recommended conditions for a 50 uM ATP reaction. The final conditions for the assay were 50 mM HEPES, pH 7.2, 5 mM MgCl2, 5 mM tripotassium citrate, 2 mM DTT, 0.1 mg/mL BSA, 30 μM acetyl-CoA, 50 μM ATP, and 8 mM KHCO3 Typically, a 10 μl reaction was run for 50 min at 25° C., and 10 μl of Transcreener stop and detect buffer was added and the combination incubated at room temp for an additional 1 hour. The data was acquired on an Envision Fluorescence reader (Perkinelmer) using a 620 excitation Cy5 FP general dual mirror, 620 excitation Cy5 FP filter, 688 emission (S) and a 688 (P) emission filter.

[2] = target: T2, recombinant human ACC1 (rhACC1) (Homo sapiens, UniProt Q13085, DEL44-44); experiment: recombinant hACC1 Transcreener assay (direct inhibition of ACC1 activity); type: biochemical; details: Transcreener ADP detection FP assay, 50 μM ATP, 30 μM acetyl-CoA, 120 min at 25° C.
T2 construct: recombinant baculovirus containing full length human ACC1 cDNA; made in house; host or cells: SF9 insect cells (baculovirus)
Method: For example direct inhibition of ACC activity, for the compound of Formula (1) was determined using preparations of recombinant human ACC1 (rhACC1) and recombinant human ACC2 (rhACC2). Representative sequences of the recombinant human ACC1 and ACC2 that can be used in the assay are provided in FIG. 1 (SEQ ID NO. 1) and FIG. 2 (SEQ. ID NO. 2), respectively. Preparation of rhACC1. Two liters of SF9 cells, infected with recombinant baculovirus containing full length human ACC1 cDNA, were suspended in ice-cold lysis buffer (25 mM Tris, pH 7.5; 150 mM NaCl; 10% glycerol; 5 mM imidazole (EMD Bioscience; Gibbstown, N.J.); 2 mM TCEP (BioVectra; Charlottetown, Canada); Benzonase nuclease (10000 U/100 g cell paste; Novagen; Madison, Wis.); EDTA-free protease inhibitor cocktail (1 tab/50 mL; Roche Diagnostics; Mannheim, Germany). Cells were lysed by 3 cycles of freeze-thaw and centrifuged at 40,000×g for 40 minutes (4° C.). Supernatant was directly loaded onto a HisTrap FF crude column (GE Healthcare; Piscataway, N.J.) and eluted with an imidazole gradient up to 0.5 M over 20 column volumes (CV). ACC1-containing fractions were pooled and diluted 1:5 with 25 mM Tris, pH 7.5, 2 mM TCEP, 10% glycerol and direct loaded onto a CaptoQ (GE Healthcare) column and eluted with an NaCl gradient up to 1 M over 20 CV's. Phosphate groups were removed from purified ACC1 by incubation with lambda phosphatase (100 U/10 μM target protein; New England Biolabs; Beverly, Mass.) for 14 hours at 4° C.; okadaic acid was added (1 μM final concentration; Roche Diagnostics) to inhibit the phosphatase. Purified ACC1 was exchanged into 25 mM Tris, pH 7.5, 2 mM TCEP, 10% glycerol, 0.5 M NaCl by 6 hour dialysis at 4° C. Aliquots were prepared and frozen at −80° C. […] The final conditions for the assay were 50 mM HEPES, pH 7.2, 10 mM MgCl2, 7.5 mM tripotassium citrate, 2 mM DTT, 0.1 mg/mL BSA, 30 μM acetyl-CoA, 50 μM ATP, and 10 mM KHCO3 Typically, a 10 μl reaction was run for 120 min at 25° C., and 10 μl of Transcreener stop and detect buffer was added and the combination incubated at room temp for an additional 1 hour. The data was acquired on a Envision Fluorescence reader (Perkinelmer) using a 620 excitation Cy5 FP general dual mirror, 620 excitation Cy5 FP filter, 688 emission (S) and a 688 (P) emission filter.

SMILES	IC50 [1] [nM]	IC50 [2] [nM]
CC(C)n1ncc2c1C(=O)C(C)C1(CCN(C(=O)c3ccc4[nH]ncc4c3)CC1)C2 (single isomer, unassigned; (+)) [Example 5A-1, (+)-1′-(1H-indazole-5-carbonyl)-1-isopropyl-6-methyl-4,6-dihydrospiro[indazole-5,4′-piperidin]-7(1H)-one]	866	4480
Cc1cc(C(=O)N2CCC3(CC2)CC(=O)c2c(cnn2C2CCC2)C3)ccc1Cl [Example 1A-3]	155	646
CC(C)n1ncc2c1C(=O)CC1(CCN(C(=O)c3cc4ncccc4[nH]3)CC1)C2 [Example 11A-48]	41.2	78.9
CC(C)n1ncc2c1C(=O)CC1(CCN(C(=O)c3c[nH]c4ccnn4c3=O)CC1)C2 [Example 11A-35]	2130	3340
Cn1c(=O)[nH]c2cc(C(=O)N3CCC4(CC3)CC(=O)c3c(cnn3C(C)(C)C)C4)ccc21 [Example 2A-45]	32.9	73.7
CC(C)(C)n1ncc2c1C(=O)CC1(CCN(C(=O)c3cc4cccnc4[nH]3)CC1)C2 [Example 12A-1, 1-tert-butyl-1′-(1H-pyrrolo[2,3-b]pyridine-2-carbonyl)-4,6-dihydrospiro[indazole-5,4′-piperidin]-7(1H)-one]	67.3	39.5
CC(C)n1ncc2c1C(=O)C(C)C1(CCN(C(=O)c3ccc4[nH]ncc4c3)CC1)C2 (single isomer, unassigned; (-)) [Example 5A-2, (−)-1′-(1H-indazole-5-carbonyl)-1-isopropyl-6-methyl-4,6-dihydrospiro[indazole-5,4′-piperidin]-7(1H)-one]	80.7	175
CC(C)(C)n1ncc2c1C(=O)CC1(CCN(C(=O)c3cnc4[nH]ncc4c3)CC1)C2 [Example 2A-41]	90	176
CC(C)(C)n1ncc2c1C(=O)CC1(CCN(C(=O)c3cccnc3C(N)=O)CC1)C2 [Example 11A-11]	1450	10600
CC(C)(C)n1ncc2c1C(=O)CC1(CCN(C(=O)c3nn(-c4ccccc4)nc3N)CC1)C2 [Example 11A-12]	850	152
Cc1nc2ccc(C(=O)N3CCC4(CC3)CC(=O)c3c(cnn3C(C)(C)C)C4)cc2[nH]1 [Example 2A-21]	32.7	93.3
CNc1nc(C)ccc1C(=O)N1CCC2(CC1)CC(=O)c1c(cnn1C(C)(C)C)C2 [Example 11A-30]	106	224
Cc1cc(C(=O)N2CCC3(CC2)CC(=O)c2c(cnn2Cc2ccccc2)C3)ccc1Cl [Example 1A-4]	719	2980
CC(C)n1ncc2c1C(=O)CC1(CCN(C(=O)c3ccc4[nH]ncc4c3)CC1)C2 [Example 10A-1, 1′-(1H-indazole-5-carbonyl)-1-isopropyl-4,6-dihydrospiro[indazole-5,4′-piperidin]-7(1H)-one]	22.3	43.8
O=C1CC2(CCN(C(=O)c3ccc4[nH]ncc4c3)CC2)Cc2cnn(C3COC3)c21 [Example 9A-1, 1′-(1H-indazole-5-carbonyl)-1-(oxetan-3-yl)-4,6-dihydrospiro[indazole-5,4′-piperidin]-7(1H)-one]	264	704
CC(C)n1ncc2c1C(=O)CC1(CCN(C(=O)c3cccnc3C(N)=O)CC1)C2 [Example 11A-10]	789	6670

SMILES	IC50 [1] [nM]	IC50 [2] [nM]
CC(C)(C)n1ncc2c1C(=O)CC1(CCN(C(=O)c3cnc4cn[nH]c4c3)CC1)C2 [Example 11A-58]	73.6	131
CCCn1ncc2c1C(=O)CC1(CCN(C(=O)c3ccc(Cl)c(C)c3)CC1)C2 [Example 2A-9]	1850	4260
CC(C)n1ncc2c1C(=O)CC1(CCN(C(=O)c3ccc4c(=O)[nH]ccc4c3)CC1)C2 [Example 2A-14]	27	172
CC(C)n1ncc2c1C(=O)CC1(CCN(C(=O)c3c(O)cnc4ccccc34)CC1)C2 [Example 2A-70]	3760	9790
CC(C)(C)n1ncc2c1C(=O)CC1(CCN(C(=O)c3ccc(-c4ncc[nH]4)cc3)CC1)C2 [Example 11A-53]	22.8	68.3
CC(C)(C)n1ncc2c1C(=O)CC1(CCN(C(=O)c3ccc(-n4cncn4)cc3)CC1)C2 [Example 11A-72]	153	867
Cc1cc(C(=O)N2CCC3(CC2)CC(=O)c2c(cnn2C(C)c2ccccc2)C3)ccc1Cl (stereo not shown) [Example 2A-6]	88.8	640
CC(C)(C)n1nc(Br)c2c1C(=O)CC1(CCN(C(=O)c3cc(Br)c4[nH]c(=O)[nH]c4c3)CC1)C2 [Example 13A-1, 3-bromo-1′-(7-bromo-2-oxo-2,3-dihydro-1H-benzo[d]imidazole-5-carbonyl)-1-tert-butyl-4,6-dihydrospiro[indazole-5,4′-piperidin]-7(1H)-one]	316	264
CC(C)(C)n1ncc2c1C(=O)CC1(CCN(C(=O)c3ccc(N4CCOCC4)nc3)CC1)C2 [Example 11A-22]	539	1260
CC(C)(C)n1ncc2c1C(=O)CC1(CCN(C(=O)c3cc4cccn4cn3)CC1)C2 [Example 11A-69]	288	580
Cc1nc2c(F)cc(C(=O)N3CCC4(CC3)CC(=O)c3c(cnn3C(C)(C)C)C4)cc2[nH]1 [Example 2A-55]	105	266
Cc1ccn2cc(C(=O)N3CCC4(CC3)CC(=O)c3c(cnn3C(C)(C)C)C4)nc2c1 [Example 11A-27]	309	584
CC(C)(C)n1ncc2c1C(=O)CC1(CCN(C(=O)c3ccnc(-c4cc[nH]n4)c3)CC1)C2 [Example 11A-26]	41.5	130
Cc1ccn2cc(C(=O)N3CCC4(CC3)CC(=O)c3c(cnn3C(C)C)C4)nc2c1 [Example 11A-40]	588	1140
CC(C)(C)n1ncc2c1C(=O)CC1(CCN(C(=O)c3ccc4[nH]cnc4n3)CC1)C2 [Example 11A-68]	285	825
CC(C)n1ncc2c1C(=O)CC1(CCN(C(=O)c3cc(Cl)c4[nH]c(=O)[nH]c4c3)CC1)C2 [Example 2A-57]	20.8	66.5
